Laboratory results taken from US4401660A, “Ester derivatives of 5-O-mycaminosyl tylonolide and method of using same” (Eli Lilly and Company, priority 1981, dated 1983).
Read-outs that look alike come from different tables or passages of the source.

Legend:
Pasteurella multocida = experiment: Treatment of Pasteurella infections in chicks (Table V); format: in vivo, one-day-old chicks; conditions: Pasteurella multocida, sc, 4 h; 30 mg/kg by subcutaneous injection one and four hours post challenge; read-out: Deaths in Treated Chicks/Number Treated (converted)
Summary of the method: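 One-day-old chicks challenged subcutaneously with avian P. multocida (0.1 ml of 10^-3 dilution of 20-hour tryptose broth culture). Esters given at 30 mg/kg subcutaneously at 1 and 4 hours post challenge. Untreated infected controls, ten per group.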

[1] = system: Streptococcus pyogenes C203; experiment: ED50 in mice with experimental infections (Table IV); format: in vivo; conditions: Streptococcus pyogenes, doses given 1 and 4 hours postinfection
Procedure: The OMT ester derivatives of this invention have shown in vivo antimicrobial activity against experimental bacterial infections caused by gram-positive bacteria. When two doses of test compound were administered to mice with experimental infections, the activity observed was measured as an ED50 value [effective dose in mg/kg to protect 50% of the test animals: see Warren Wick, et al., J. Bacteriol. 81, 233-235 (1961)].
^a mg/kg × 2; doses given 1 and 4 hours postinfection

[2] = system: Streptococcus pyogenes C203; experiment: MIC, standard agar-dilution assay (Table II); format: cell-based; design: unit not given here
Procedure: (§1) The MIC's in Table II were determined by standard agar-dilution assays. The MIC's in Table III were obtained using a conventional broth-dilution microtiter test.

[3] = system: Staphylococcus aureus X400; experiment: MIC, standard agar-dilution assay (Table II); format: cell-based; design: unit not given here; conditions: Staphylococcus aureus X400, methicillin-resistant strain
Procedure: as §1

[4] = system: Haemophilus influenzae Holt; experiment: MIC, standard agar-dilution assay (Table II); format: cell-based; design: unit not given here; conditions: ampicillin-sensitive strain
Procedure: as §1

[5] = system: Staphylococcus aureus S13E; experiment: MIC, standard agar-dilution assay (Table II); format: cell-based; design: unit not given here
Procedure: as §1

[6] = system: Staphylococcus epidermidis EPI1; experiment: MIC, standard agar-dilution assay (Table II); format: cell-based; design: unit not given here
Procedure: as §1

[7] = system: Haemophilus influenzae R252; experiment: MIC, standard agar-dilution assay (Table II); format: cell-based; design: unit not given here; conditions: Haemophilus influenzae R252, ampicillin-resistant strain
Procedure: as §1

[8] = system: Streptococcus pneumoniae Park I; experiment: MIC, standard agar-dilution assay (Table II); format: cell-based; design: unit not given here
Procedure: as §1

[9] = system: Staphylococcus epidermidis EPI2; experiment: MIC, standard agar-dilution assay (Table II); format: cell-based; design: unit not given here
Procedure: as §1

[10] = system: Staphylococcus aureus V41; experiment: MIC, standard agar-dilution assay (Table II); format: cell-based; design: unit not given here; conditions: Staphylococcus aureus V41, penicillin-resistant strain
Procedure: as §1

[11] = system: Streptococcus Group D 9960; experiment: MIC, standard agar-dilution assay (Table II); format: cell-based; design: unit not given here
Procedure: as §1

[12] = system: Streptococcus Group D X66; experiment: MIC, standard agar-dilution assay (Table II); format: cell-based; design: unit not given here
Procedure: as §1

[13] = system: Pasteurella multocida 68C; experiment: MIC, broth-dilution microtiter test (Table III); format: cell-based; design: unit not given here
Procedure: as §1

Mycoplasma gallisepticum = experiment: MIC, broth-dilution microtiter test (Table III); format: cell-based; design: unit not given here
Procedure: as §1

Mycoplasma synoviae = experiment: MIC, broth-dilution microtiter test (Table III); format: cell-based; design: unit not given here
Procedure: as §1

Staphylococcus aureus = experiment: MIC, broth-dilution microtiter test (Table III); format: cell-based; design: unit not given here
Procedure: as §1

Streptococcus sp. 80 = experiment: MIC, broth-dilution microtiter test (Table III); format: cell-based; design: unit not given here
Procedure: as §1

[14] = system: Pasteurella multocida 60A; experiment: MIC, broth-dilution microtiter test (Table III); format: cell-based; design: unit not given here; conditions: avian isolate
Procedure: as §1

[15] = system: Pasteurella haemolytica 41D; experiment: MIC, broth-dilution microtiter test (Table III); format: cell-based; design: unit not given here
Procedure: as §1

[16] = system: Pasteurella haemolytica 22C; experiment: MIC, broth-dilution microtiter test (Table III); format: cell-based; design: unit not given here
Procedure: as §1

[17] = system: Pasteurella multocida 22A; experiment: MIC, broth-dilution microtiter test (Table III); format: cell-based; design: unit not given here
Procedure: as §1

Mycoplasma hyorhinis = experiment: MIC, broth-dilution microtiter test (Table III); format: cell-based; design: unit not given here
Procedure: as §1

[18] = system: Pasteurella multocida 17E; experiment: MIC, broth-dilution microtiter test (Table III); format: cell-based; design: unit not given here; conditions: bovine isolate
Procedure: as §1

[19] = system: Pasteurella haemolytica 23C; experiment: MIC, broth-dilution microtiter test (Table III); format: cell-based; design: unit not given here
Procedure: as §1

[20] = system: Staphylococcus aureus X1.1; experiment: MIC, standard agar-dilution assay (Table II); format: cell-based; design: unit not given here
Procedure: as §1

[21] = system: Pasteurella multocida 40G; experiment: MIC, broth-dilution microtiter test (Table III); format: cell-based; design: unit not given here
Procedure: as §1

[22] = C203, oral, read-out: ED50, Oral
[23] = C203, sc, subcutaneous, read-out: ED50, Subcutaneous

| Compound | mortality at 30 mg/kg (Pasteurella multocida) | ED50 [1, 22] | minimal inhibitory concentration (MIC) [2] | minimal inhibitory concentration (MIC) [3] | minimal inhibitory concentration (MIC) [5] | minimal inhibitory concentration (MIC) [6] | minimal inhibitory concentration (MIC) [8] | minimal inhibitory concentration (MIC) [9] | minimal inhibitory concentration (MIC) [10] | minimal inhibitory concentration (MIC) [11] | minimal inhibitory concentration (MIC) [12] | minimal inhibitory concentration (MIC) [13] | minimal inhibitory concentration (MIC) (Mycoplasma gallisepticum) | minimal inhibitory concentration (MIC) (Mycoplasma synoviae) | minimal inhibitory concentration (MIC) (Staphylococcus aureus) | minimal inhibitory concentration (MIC) (Streptococcus sp. 80) | minimal inhibitory concentration (MIC) [14] | minimal inhibitory concentration (MIC) [15] | minimal inhibitory concentration (MIC) [16] | minimal inhibitory concentration (MIC) [17] | further results |
| --- | --- | --- | --- | --- | --- | --- | --- | --- | --- | --- | --- | --- | --- | --- | --- | --- | --- | --- | --- | --- | --- |
| CCC1OC(=O)CC(O)C(C)C(OC2OC(C)C(OC(C)=O)C(N(C)C)C2OC(C)=O)C(CC=O)CC(C)C(=O)C=CC(C)=CC1COC(=O)c1ccccc1 (stereo not shown) [Compound 6, 23-O-Benzoyl-2',4'-Di-O-acetyl-OMT] | 80% | 146 mg/kg | 0.125 | 0.25 | 0.25 | 0.25 | 0.06 | 0.5 | 0.25 | 0.25 | 0.25 | 0.78 | < 0.05 | 0.39 | 0.39 | 0.195 | 0.78 | 3.12 | 6.25 | 1.56 | ED50 [1, 23]: > 30 mg/kg; minimal inhibitory concentration (MIC) [4]: 2; minimal inhibitory concentration (MIC) [7]: 2; minimal inhibitory concentration (MIC) (Mycoplasma hyorhinis): 0.39; minimal inhibitory concentration (MIC) [18]: 1.56; minimal inhibitory concentration (MIC) [19]: 3.12 |
| CCC1OC(=O)CC(O)C(C)C(OC2OC(C)C(O)C(N(C)C)C2O)C(CC=O)CC(C)C(=O)C=CC(C)=CC1COC(=O)c1ccccc1 (stereo not shown) [Compound 26, 23-O-Benzoyl-OMT] | 100% | 136 mg/kg | 0.125 | 0.5 | 0.25 | 0.25 | 0.06 | 0.5 | 0.25 | 0.25 | 0.25 | 1.56 | < 0.05 | 0.39 | 0.39 | 0.195 | 0.78 | 6.25 | 6.25 | 1.56 | ED50 [1, 23]: 10.6 mg/kg; minimal inhibitory concentration (MIC) [4]: 2; minimal inhibitory concentration (MIC) [20]: 0.25; minimal inhibitory concentration (MIC) [7]: 2; minimal inhibitory concentration (MIC) (Mycoplasma hyorhinis): 0.39; minimal inhibitory concentration (MIC) [18]: 1.56; minimal inhibitory concentration (MIC) [19]: 3.12 |
| CCC1OC(=O)CC(O)C(C)C(OC2OC(C)C(O)C(N(C)C)C2OC(C)=O)C(CC=O)CC(C)C(=O)C=CC(C)=CC1COC(=O)Cc1ccccc1 (stereo not shown) [Compound 28] | 80% | 155 mg/kg | 0.125 | 0.25 | 0.125 | 0.125 | 0.015 | 0.125 | 0.125 | 0.125 | 0.125 | 0.78 | < 0.05 | < 0.05 | 0.195 | < 0.05 | 0.78 | 3.12 | 6.25 | 3.12 | ED50 [1, 23]: 6.5 mg/kg; minimal inhibitory concentration (MIC) [4]: 1; minimal inhibitory concentration (MIC) [20]: 0.125; minimal inhibitory concentration (MIC) [7]: 1; minimal inhibitory concentration (MIC) (Mycoplasma hyorhinis): 1.56; minimal inhibitory concentration (MIC) [18]: 1.56; minimal inhibitory concentration (MIC) [19]: 3.12 |
| CCC1OC(=O)CC(O)C(C)C(OC2OC(C)C(OC(C)=O)C(N(C)C)C2OC(C)=O)C(CC=O)CC(C)C(=O)C=CC(C)=CC1COC(=O)CSc1ccc(Cl)c(Cl)c1 (stereo not shown) [Compound 37, 2',4'-Di-O-acetyl-23-O-[(3,4-dichlorophenylthio)acetyl]-OMT] | 100% | > 150 mg/kg | 0.5 | 4 | 2 | 2 | 0.5 | 4 | 4 | 2 | 2 | 0.78 | < 0.05 | 0.78 | 0.39 | < 0.05 | 3.12 | 12.5 | 6.25 | 6.25 | minimal inhibitory concentration (MIC) [20]: 2; minimal inhibitory concentration (MIC) [21]: 3.12; minimal inhibitory concentration (MIC) (Mycoplasma hyorhinis): 6.25; minimal inhibitory concentration (MIC) [18]: 1.56; minimal inhibitory concentration (MIC) [19]: 6.25 |
| CCC1OC(=O)CC(O)C(C)C(OC2OC(C)C(O)C(N(C)C)C2O)C(CC=O)CC(C)C(=O)C=CC(C)=CC1COC(=O)CSc1ccc(Cl)c(Cl)c1 (stereo not shown) [Compound 38, 23-O-[(3,4-Dichlorophenylthio)acetyl]-OMT] | 10% | > 150 mg/kg | 0.06 | 0.25 | 0.125 | 0.25 | 0.03 | 0.25 | 0.25 | 0.125 | 0.125 | 1.56 | < 0.05 | 0.097 | < 0.05 | < 0.05 | 1.56 | 6.25 | 3.12 | 3.12 | minimal inhibitory concentration (MIC) [20]: 0.125; minimal inhibitory concentration (MIC) [21]: 1.56; minimal inhibitory concentration (MIC) (Mycoplasma hyorhinis): 3.12; minimal inhibitory concentration (MIC) [18]: 1.56; minimal inhibitory concentration (MIC) [19]: 6.25 |
